Results from PubChem BioAssay AID1963980 (Molecular Pharmacology Branch, DTP, NCI, 2024).

Test system: 475296-252-R-J1-PDC spheroid viability
Assay: Anticancer human tumor 475296-252-R-J1-PDC patient-derived rectal carcinoma cell line growth inhibition [PI3K]
Conditions: spheroids with HUVEC and MSC; for IC50: curve of first compound; for viability, T/C: stronger effect = lower value
Source text: Combinatorial screen of targeted agents with the PI3K inhibitors inavolisib, alpelisib, duvelisib, and copanlisib in multi-cell type tumor spheroids
A high-throughput screen of multi-cell type tumor spheroids was designed to identify active combinations of targeted small molecules and PI3K pathway inhibitors. Complex spheroids include a stromal component modeled by human endothelial cells (HUVEC) and fibroblasts modeled by human mesenchymal stem cells (MSCs). The concentration ranges selected for each drug and investigational agent were based upon clinically achievable concentrations if the clinical Cmax of the agent was known.
Compounds. The drugs and investigational agents: inavolisib (NSC800729), alpelisib (NSC765974), duvelisib (NSC772469), copanlisib (NSC816437), ipatasertib (NSC767898), afuresertib (NSC778305), talazoparib (NSC767125), sapanisertib (NSC764658), selumetinib (NSC741078), tovorafenib (DAY101, NSC766906), vemurafenib (NSC761431), ravoxertinib (NSC781343), sotorasib (NSC818433), MRTX1133 (NSC 836407), abemaciclib (NSC 768073), palbociclib (NSC758247), venetoclax (NSC 766270), SY5609 (NSC837396), enzalutamide (NSC755605), and darolutamide (NSC825331), were obtained from the National Cancer Institute (NCI) Developmental Therapeutics Program Chemical Repository. The FDA-approved anticancer drug set is available from the NCI Developmental Therapeutics Program. […] The stock solutions were prepared in dimethyl sulfoxide (DMSO, Sigma-Aldrich, St. Louis, MO, cat. D2650) at 800-fold the tested concentration and stored at -70 degrees C prior to their use. All drugs and investigational agents were tested over a range starting from a high concentration at or near the clinical Cmax and decreasing in half-log increments. If the clinical Cmax for an agent had not been determined, the highest concentration tested was 10 microM.
Cell Culture. All cells were maintained in an incubator at 37 degrees C and 5% CO2 with 95% humidity. The PDC lines were cultured according to standard operating procedures established by the NCI PDMR (https://pdmr.cancer.gov/sops/default.htm). All PDCs were thawed and cultured in Matrigel-coated flasks prepared with a working solution of 1X Ham's F-12 nutrient mix, without supplementation (Invitrogen, Waltham, MA, cat. 11765054), 100 U/mL penicillin-streptomycin (Invitrogen, cat. 15140122), and 2.5% Matrigel (Corning Inc., Corning, NY, cat. 354248) for the first three passages. The 354836-022-R-J1-PDC, 475296-252-R-J1-PDC, and 997726-040-R-J2-PDC lines were cultured in 6A media, which includes advanced DMEM/F-12 (Thermo Fisher Scientific, cat. 12634028), 10 mM HEPES (Thermo Fisher Scientific, cat. 15630080), 1X GlutaMAX supplement (Thermo Fisher Scientific, cat. 35050061), 0.1 mg/mL primocin (InvivoGen, San Diego, CA, cat. ant-pm-2), 10% defined fetal bovine serum, heat inactivated (HyClone Laboratories Inc., Logan, UT, cat. SH30070.03HI), 50% L-WRN conditioned media (ATCC, cat. CRL-3276), 1.25 mM N-Acetyl-L-cysteine (Sigma-Aldrich, cat. A9165), 10 mM nicotinamide (Sigma-Aldrich, cat. N0636), 1X B-27 supplement (Thermo Fisher Scientific, cat. 17504044), 1X N-2 supplement (Thermo Fisher Scientific, cat. 17502048), and 10 microM Y-27632 dihydrochloride (Tocris Bioscience, Bristol, United Kingdom, cat. 1254). The 624824-186-R-J2-PDC line was cultured in 6C/Colon 1B media, which includes all 6A media components plus 50 ng/mL human EGF recombinant protein (Thermo Fisher Scientific, cat. PHG0311). […]

[1] = second compound 0.00316 µM, first compound 0.0316 µM
[2] = second compound 0.00316 µM, first compound 0.1 µM
[3] = second compound 0.01 µM, first compound 0.0316 µM
[4] = second compound 0.01 µM, first compound 0.1 µM
[5] = second compound 0.0316 µM, first compound 0.0316 µM
[6] = second compound 0.0316 µM, first compound 0.1 µM
[7] = second compound 0.1 µM, first compound 0.0316 µM
[8] = second compound 0.1 µM, first compound 0.1 µM
[9] = second compound 0.316 µM, first compound 0.0316 µM
[10] = second compound 0.316 µM, first compound 0.1 µM
[11] = second compound 1 µM, first compound 0.0316 µM
[12] = second compound 1 µM, first compound 0.1 µM
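Further: spheroids exposed to agents for seven days before readout.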

CC(=O)c1c(C)c2cnc(Nc3ccc(N4CCNCC4)cn3)nc2n(C2CCCC2)c1=O + CC(Nc1ccc2c(c1)OCCn1cc(N3C(=O)OCC3C(F)F)nc1-2)C(N)=O
IC50 (second compound 0.00316 µM): > 0.1 µM
IC50 (second compound 0.01 µM): > 0.1 µM
IC50 (second compound 0.0316 µM): > 0.1 µM
IC50 (second compound 0.1 µM): > 0.1 µM
IC50 (second compound 0.316 µM): > 0.1 µM
IC50 (second compound 1 µM): > 0.1 µM
viability, T/C (second compound 0.00316 µM, first compound 0.000316 µM): 93.5%
viability, T/C (second compound 0.00316 µM, first compound 0.001 µM): 86.6%
viability, T/C (second compound 0.00316 µM, first compound 0.00316 µM): 101%
viability, T/C (second compound 0.00316 µM, first compound 0.01 µM): 93.5%
viability, T/C [1]: 119%
viability, T/C [2]: 97.2%
viability, T/C (second compound 0.01 µM, first compound 0.000316 µM): 102%
viability, T/C (second compound 0.01 µM, first compound 0.001 µM): 91.3%
viability, T/C (second compound 0.01 µM, first compound 0.00316 µM): 94%
viability, T/C (second compound 0.01 µM, first compound 0.01 µM): 83.2%
viability, T/C [3]: 97%
viability, T/C [4]: 100%
viability, T/C (second compound 0.0316 µM, first compound 0.000316 µM): 97.5%
viability, T/C (second compound 0.0316 µM, first compound 0.001 µM): 101%
viability, T/C (second compound 0.0316 µM, first compound 0.00316 µM): 91.3%
viability, T/C (second compound 0.0316 µM, first compound 0.01 µM): 93.5%
viability, T/C [5]: 104%
viability, T/C [6]: 110%
viability, T/C (second compound 0.1 µM, first compound 0.000316 µM): 90.4%
viability, T/C (second compound 0.1 µM, first compound 0.001 µM): 91.8%
viability, T/C (second compound 0.1 µM, first compound 0.00316 µM): 100%
viability, T/C (second compound 0.1 µM, first compound 0.01 µM): 103%
viability, T/C [7]: 96.1%
viability, T/C [8]: 88.6%
viability, T/C (second compound 0.316 µM, first compound 0.000316 µM): 93.5%
viability, T/C (second compound 0.316 µM, first compound 0.001 µM): 96.2%
viability, T/C (second compound 0.316 µM, first compound 0.00316 µM): 83%
viability, T/C (second compound 0.316 µM, first compound 0.01 µM): 85.4%
viability, T/C [9]: 109%
viability, T/C [10]: 91.7%
viability, T/C (second compound 1 µM, first compound 0.000316 µM): 85.4%
viability, T/C (second compound 1 µM, first compound 0.001 µM): 90.1%
viability, T/C (second compound 1 µM, first compound 0.00316 µM): 87.2%
viability, T/C (second compound 1 µM, first compound 0.01 µM): 91.2%
viability, T/C [11]: 93.2%
viability, T/C [12]: 100%

CNC(=O)c1ccc(N2C(=S)N(c3ccc(C#N)c(C(F)(F)F)c3)C(=O)C2(C)C)cc1F + CC(Nc1ccc2c(c1)OCCn1cc(N3C(=O)OCC3C(F)F)nc1-2)C(N)=O
IC50 (second compound 0.00316 µM): > 10 µM
IC50 (second compound 0.01 µM): > 10 µM
IC50 (second compound 0.0316 µM): > 10 µM
IC50 (second compound 0.1 µM): > 10 µM
IC50 (second compound 0.316 µM): > 10 µM
IC50 (second compound 1 µM): > 10 µM
viability, T/C [1]: 98.4%
viability, T/C [2]: 85%
viability, T/C (second compound 0.00316 µM, first compound 0.316 µM): 102%
viability, T/C (second compound 0.00316 µM, first compound 1 µM): 84.3%
viability, T/C (second compound 0.00316 µM, first compound 3.16 µM): 100%
viability, T/C (second compound 0.00316 µM, first compound 10 µM): 104%
viability, T/C [3]: 95.4%
viability, T/C [4]: 90.4%
viability, T/C (second compound 0.01 µM, first compound 0.316 µM): 102%
viability, T/C (second compound 0.01 µM, first compound 1 µM): 93%
viability, T/C (second compound 0.01 µM, first compound 3.16 µM): 99.3%
viability, T/C (second compound 0.01 µM, first compound 10 µM): 85.1%
viability, T/C [5]: 94.6%
viability, T/C [6]: 87.7%
viability, T/C (second compound 0.0316 µM, first compound 0.316 µM): 94.2%
viability, T/C (second compound 0.0316 µM, first compound 1 µM): 99.9%
viability, T/C (second compound 0.0316 µM, first compound 3.16 µM): 96.9%
viability, T/C (second compound 0.0316 µM, first compound 10 µM): 103%
viability, T/C [7]: 87.1%
viability, T/C [8]: 93.6%
viability, T/C (second compound 0.1 µM, first compound 0.316 µM): 90%
viability, T/C (second compound 0.1 µM, first compound 1 µM): 100%
viability, T/C (second compound 0.1 µM, first compound 3.16 µM): 97.5%
viability, T/C (second compound 0.1 µM, first compound 10 µM): 91.3%
viability, T/C [9]: 87.7%
viability, T/C [10]: 93.8%
viability, T/C (second compound 0.316 µM, first compound 0.316 µM): 84.9%
viability, T/C (second compound 0.316 µM, first compound 1 µM): 94.3%
viability, T/C (second compound 0.316 µM, first compound 3.16 µM): 92.5%
viability, T/C (second compound 0.316 µM, first compound 10 µM): 90.9%
viability, T/C [11]: 98.1%
viability, T/C [12]: 89%
viability, T/C (second compound 1 µM, first compound 0.316 µM): 91.3%
viability, T/C (second compound 1 µM, first compound 1 µM): 84%
viability, T/C (second compound 1 µM, first compound 3.16 µM): 94.3%
viability, T/C (second compound 1 µM, first compound 10 µM): 80.8%
